One test has as its target T1, GbsMerA (Gelidibacter salicanalis, UniProt A0A934NG65).
T1 construct: gene JEM65_00875; full length, 449 aa, pET32a(+) (BamHI/XhoI), N-terminal His6 tag and vector tag cleaved with enterokinase, E. coli BL21, SEC, homodimer with non-covalent FAD; no NmerA domain and no C-terminal Cys-Cys motif; primers encode N-terminus MKEYDV and C-terminus IPHML
T1 sequence (A0A934NG65 1-448): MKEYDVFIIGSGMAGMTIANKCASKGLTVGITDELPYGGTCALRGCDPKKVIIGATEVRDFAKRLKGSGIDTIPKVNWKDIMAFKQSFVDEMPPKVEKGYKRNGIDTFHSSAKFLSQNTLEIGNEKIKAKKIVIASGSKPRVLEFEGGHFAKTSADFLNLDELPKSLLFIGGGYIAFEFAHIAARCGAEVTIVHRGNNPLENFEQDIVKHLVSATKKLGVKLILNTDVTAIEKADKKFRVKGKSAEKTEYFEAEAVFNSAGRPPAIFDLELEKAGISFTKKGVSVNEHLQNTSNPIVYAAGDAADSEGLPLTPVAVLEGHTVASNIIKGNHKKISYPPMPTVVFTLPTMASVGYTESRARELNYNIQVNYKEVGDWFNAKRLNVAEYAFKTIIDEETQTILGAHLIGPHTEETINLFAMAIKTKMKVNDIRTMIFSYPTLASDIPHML
Briefly: X-ray crystal structure. It is filed as binding.

In test [1] the target is mercuric reductase GbsMerA from Gelidibacter salicanalis PAMC21136 (Gelidibacter salicanalis PAMC21136). Kind of test: crystal structure; sitting drop vapor diffusion at 22 °C; GbsMerA 35 mg/mL with 1.6 M sodium phosphate monobasic/0.4 M potassium phosphate dibasic, 0.1 M sodium phosphate dibasic/citric acid pH 4.2; homodimer in the asymmetric unit.

In the case of `NC(=O)C1=CN([C@@H]2O[C@H](COP(=O)(O)OP(=O)(O)OC[C@H]3O[C@@H](n4cnc5c(N)ncnc54)[C@H](OP(=O)(O)O)[C@@H]3O)[C@@H](O)[C@H]2O)C=CC1` [NADPH], at GbsMerA (complex with FAD and NADPH, bicine/Trizma pH 8.5, re-face of the FAD isoalloxazine ring), the X-ray crystal structure entry is recorded as “Furthermore, we determined the GbsMerA–NADPH complex structure”.
In the case of `Cc1cc2nc3c(=O)[nH]c(=O)nc-3n(C[C@H](O)[C@H](O)[C@H](O)COP(=O)(O)OP(=O)(O)OC[C@H]3O[C@@H](n4cnc5c(N)ncnc54)[C@H](O)[C@@H]3O)c2cc1C` [FAD], at GbsMerA (2.6 Å, non-covalently bound FAD in FAD-binding domain, crystallised at pH 4.2 (phosphate/citrate)), the X-ray crystal structure entry is “Non-covalently bound FAD is located in the central region of the FAD-binding domain”.
Molecule “mercuric reductase GbsMerA from Gelidibacter salicanalis PAMC21136 (enzyme)” came in with a stoichiometry N in test [1] of 2.

The values above are taken from article PMC10587081, “Biochemical and structural basis of mercuric reductase, GbsMerA, from Gelidibacter salicanalis PAMC21136” (Scientific Reports, 2023).
